Tested on: 354836-022-R-J1-PDC multicell spheroid viability
Assay: Anticancer human tumor 354836-022-R-J1-PDC patient-derived head and neck squamous cell carcinoma cell line growth inhibition [PI3K]
Conditions: for IC50: curve of first compound; for viability, T/C: stronger effect = lower value
Summary of the method: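 We assembled tumor spheroids that included a stromal compartment of HUVEC and MSCs, then exposed them to targeted agents alone and together with PI3K pathway inhibitors. Concentration series descended by half-log from clinically achievable Cmax levels. Viability served as the endpoint.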
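Also: spheroids exposed to agents for seven days before the viability read.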

SMILES: CC(C)NCC(C(=O)N1CCN(c2ncnc3c2C(C)CC3O)CC1)c1ccc(Cl)cc1 (configuration not stated) + CC(Nc1ccc2c(c1)OCCn1cc(N3C(=O)OCC3C(F)F)nc1-2)C(N)=O
- IC50 (second compound 0.00316 µM): 242 nM
- IC50 (second compound 0.01 µM): 328 nM
- IC50 (second compound 0.0316 µM): 333 nM
- IC50 (second compound 0.1 µM): 590 nM
- IC50 (second compound 0.316 µM): 202 nM
- IC50 (second compound 1 µM): 72.2 nM
- viability, T/C (second compound 0.00316 µM, first compound 0.0316 µM): 82.9%
- viability, T/C (second compound 0.00316 µM, first compound 0.1 µM): 69.4%
- viability, T/C (second compound 0.00316 µM, first compound 0.316 µM): 42.8%
- viability, T/C (second compound 0.00316 µM, first compound 1 µM): 26.7%
- viability, T/C (second compound 0.00316 µM, first compound 3.16 µM): 22.1%
- viability, T/C (second compound 0.00316 µM, first compound 10 µM): 12.5%
- viability, T/C (second compound 0.01 µM, first compound 0.0316 µM): 95.5%
- viability, T/C (second compound 0.01 µM, first compound 0.1 µM): 68.5%
- viability, T/C (second compound 0.01 µM, first compound 0.316 µM): 58.2%
- viability, T/C (second compound 0.01 µM, first compound 1 µM): 24.4%
- viability, T/C (second compound 0.01 µM, first compound 3.16 µM): 22.3%
- viability, T/C (second compound 0.01 µM, first compound 10 µM): 8.88%
- viability, T/C (second compound 0.0316 µM, first compound 0.0316 µM): 74.5%
- viability, T/C (second compound 0.0316 µM, first compound 0.1 µM): 75%
- viability, T/C (second compound 0.0316 µM, first compound 0.316 µM): 45.8%
- viability, T/C (second compound 0.0316 µM, first compound 1 µM): 31.9%
- viability, T/C (second compound 0.0316 µM, first compound 3.16 µM): 21.3%
- viability, T/C (second compound 0.0316 µM, first compound 10 µM): 10.8%
- viability, T/C (second compound 0.1 µM, first compound 0.0316 µM): 75.4%
- viability, T/C (second compound 0.1 µM, first compound 0.1 µM): 73.6%
- viability, T/C (second compound 0.1 µM, first compound 0.316 µM): 68.5%
- viability, T/C (second compound 0.1 µM, first compound 1 µM): 34.2%
- viability, T/C (second compound 0.1 µM, first compound 3.16 µM): 18.6%
- viability, T/C (second compound 0.1 µM, first compound 10 µM): 8.92%
- viability, T/C (second compound 0.316 µM, first compound 0.0316 µM): 62.4%
- viability, T/C (second compound 0.316 µM, first compound 0.1 µM): 58.6%
- viability, T/C (second compound 0.316 µM, first compound 0.316 µM): 44.7%
- viability, T/C (second compound 0.316 µM, first compound 1 µM): 28.4%
- viability, T/C (second compound 0.316 µM, first compound 3.16 µM): 16.2%
- viability, T/C (second compound 0.316 µM, first compound 10 µM): 7.58%
- viability, T/C (second compound 1 µM, first compound 0.0316 µM): 56.7%
- viability, T/C (second compound 1 µM, first compound 0.1 µM): 45.9%
- viability, T/C (second compound 1 µM, first compound 0.316 µM): 38.9%
- viability, T/C (second compound 1 µM, first compound 1 µM): 28%
- viability, T/C (second compound 1 µM, first compound 3.16 µM): 15.8%
- viability, T/C (second compound 1 µM, first compound 10 µM): 9.1%
